Series [1] has as its system ZIKV Puerto Rico strain (PRVABC59). Put plainly: ZIKV CPE MTS assay in human neuroblastoma (U251) cells. Particulars: for EC50: U251 cells; for IC50: U-251, 120 h, read-out: ZIKV CPE MTS Assay IC50 (μM) H251. It counts as cell-based, Zika virus. As to the method:
(§1) […] Cell cytopathic effect (CPE) MTS assay (CellTiter 96@k) AQueous One Solution Cell Proliferation Promega kit, Promega) was measured four (Vero) or five (U251 or Huh7) days after compound addition to determine the levels of replication inhibition.

A further series deals with ZIKV PRVABC59. Put plainly: Combination of SSZ with control 1, ZIKV CPE assay in Vero cells. The class given is cell-based, Zika virus. To be noted: Vero cells pretreated 18-20 h, MOI 0.01 PRVABC59, read-out: EC50, drug alone, ZIKV CPE assay. As to the method: Vero cells were pretreated for 18-20 h with SSZ (fixed concentrations of 300, 200 or 100 μM) plus control 1 (10, 5, 2.5 and 0.25 μM) prior to infection with MOI 0.01 PRVABC59 (drugs were replenished right after infection).
Drug-drug interactions were analyzed by using CalcuSyn (Biosoft, Ferguson, MO) computer software: 300, 200, and 100 μM SSZ in the presence of 10, 5, 2.5, and 0.25 μM of control 1 was evaluated versus each drug alone for each drug concentration. The interpretation of Combination Index (CI) values are as follows: Antagonism: CI value>1.0, Additive effect: CI value=1.0; Synergism: CI value=<1.0.

The subject of series [2] is ZIKV Puerto Rico strain (PRVABC59). Put plainly: ZIKV CPE MTS assay in Vero cells. To be noted: for IC50: 96 h, read-out: ZIKV CPE MTS Assay IC50 (μM) Vero. It counts as cell-based, Zika virus. As to the method: as §1
In general terms: Tetrazolium dyes change colour on reduction, which living cells bring about.

Series [3] shares this test system. Put plainly: ZIKV CPE MTS assay in Huh7 cells. It counts as cell-based, Zika virus. To be noted: for IC50: Huh-7, 120 h, read-out: ZIKV CPE MTS Assay IC50 (μM) Huh7. As to the method: as §1
Series [4] can be described thus: Cytotoxicity MTT assay in Huh7 cells. The class given is cell-based. To be noted: human.
A short description of series [5]: Cytotoxicity MTT assay in Vero cells. The class given is cell-based. To be noted: African green monkey. From the text:
(§2) The toxicity of the compounds can be assessed in Vero, human PBM, CEM (human lymphoblastoid), and can be assessed in MT-2, and HepG2 cells, as described previously (see Schinazi R. F., Sommadossi J.-P., Saalmann V., Cannon D. L., Xie M.-Y., Hart G. C., Smith G. A. & Hahn E. F. Antimicrob. Agents Chemother. 1990, 34, 1061-67). Cycloheximide can be included as positive cytotoxic control, and untreated cells exposed to solvent can be included as negative controls. The cytotoxicity (IC50) can be obtained from the concentration-response curve using the median effective method described previously (see Chou T.-C. & Talalay P. Adv. Enzyme Regul. 1984, 22, 27-55; Belen'kii M. S. & Schinazi R. F. Antiviral Res. 1994, 25, 1-11).

A short description of series [6]: Cytotoxicity MTT assay in HepG2 cells. The class given is cell-based. To be noted: human.
Text: as §2

Series [7] can be described thus: Cytotoxicity MTT assay in CEM cells. The class given is cell-based. To be noted: human.
Text: as §2

Series [8] can be described thus: Cytotoxicity MTT assay in PBM cells. It counts as cell-based. Particulars: human. As to the method:
v) Cellular Toxicity Assays: Nucleoside and nucleoside monophosphate prodrugs can be evaluated for their potential toxic effects on P4/R5 cells, MT-2 cells and uninfected PHA-stimulated human PBM cell. Log-phase P4/R5, MT-2, and PHA-stimulated human PBM cells can be seeded at 5×10^3 to 5×10^4 cells/well in 96-well cell culture plates containing 10-fold serial dilutions of the test drug. The cultures can be incubated for 2-4 days, after which 3-(4,5-dimethylthiazol-2-yl)-2,5-diphenyltetrazolium bromide (MTT) dye solution (Promega, Madison, WI) can be added to each well and incubated overnight. The reaction can be stopped with stop solubilization solution (Promega, Madison, WI) and plates can be read at a wavelength of 570 nm. The median 50% cytotoxic concentration (CC50) can be determined from the concentration-response curve using the median effect method.
as §2

For series [9], the system named is DENV-2. The experiment in a line: DENV-2 VERO infectious assay. It counts as cell-based, Dengue virus. To be noted: for EC50: Dengue virus, DENV2, Vero.
The conditions of series [10]: human, in vivo; cited from earlier work.
Series [11] concerns baby hamster kidney (BHK) cells.
Series [12] has as its system DENV-2. The experiment in a line: DENV-2 Huh-7 infectious assay. It counts as cell-based. Particulars: Dengue virus, DENV2, Huh-7.
The next series relates to Norovirus. The experiment in a line: Norovirus activity test. It counts as cell-based.
The next series relates to WNV replicon. Put plainly: WNV replicon model. It counts as cell-based. Particulars: West Nile virus. Background: In antiviral work, replicon cells carry a viral genome segment that copies itself.
For the next series, the system named is DENV-2 replicon. The experiment in a line: DENV-2 replicon model. Particulars: Dengue virus, DENV2. It counts as cell-based.
In the next series the test system is HCV. Put plainly: HCV activity test. It counts as cell-based.
Where [13] appears, read: Zika virus, Vero cells, MOI=0.01, four days.

Like-named read-outs stand apart in the source and are kept apart here.

The EC50 is the concentration at which the effect is half-maximal. Take `C[C@@]1(O)[C@H](O)[C@@H](CO)O[C@H]1n1cc(F)c2cnc(N)nc21` [Control 1, beta-D-2′-C—Me-2-amino-7-fluoro-7-deazapurine ribose, reference compound]: the EC50 came to 3.5 µM in [1] (no pretreat, read-out: ZIKV-CPE MTS Assay EC50, μM, U251, No pretreat); 4 µM in series [1] (pretreated 18-20 h before infection, read-out: ZIKV-CPE MTS Assay EC50, μM, U251, Pretreat); 5.4 µM in the series on ZIKV PRVABC59; 0.8 µM in series [2] (Vero cells, no pretreat, read-out: ZIKV-CPE MTS Assay EC50, μM, Vero, No pretreat); 0.4 µM in series [2] (Vero cells, pretreated 18-20 h before infection, read-out: ZIKV-CPE MTS Assay EC50, μM, Vero, Pretreat); 0.4 µM in [3] (Huh7 cells, no pretreat, read-out: ZIKV-CPE MTS Assay EC50, μM, Huh7, No pretreat). In series [3] (Huh7 cells, pretreated 18-20 h before infection, read-out: ZIKV-CPE MTS Assay EC50, μM, Huh7, Pretreat), the EC50 came to 0.5 µM.

One may read the IC50 as the point on the concentration scale where inhibition reaches its midpoint. With `CCOC(=O)[C@H](C)NP(=O)(OC[C@H]1O[C@@H](n2cnc3c(N)nc(N=[N+]=[N-])nc32)C(C)(O)C1O)Oc1ccccc1` (some centres unmarked), the IC50 in series [4] was greater than 100 µM; in series [1] (Zika virus) it was greater than 20 µM; in [5] it was greater than 100 µM; in series [6] it was greater than 100 µM; in [7], greater than 100 µM; in [2] (Zika virus, Vero), greater than 20 µM. Besides, the figures for the IC50 in series [8] (PBM cells) and in series [3] (Zika virus) were greater than 100 µM and less than 20 µM, respectively. The inhibition at 20 µM in series [1] (Zika virus, U-251, read-out: ZIKV CPE MTS Assay percentage of inhibition at the concentration, H251) was 34%; in series [2] (Zika virus, Vero, read-out: ZIKV CPE MTS Assay percentage of inhibition at the concentration, Vero), 3%; in series [3] (Zika virus, Huh-7, read-out: ZIKV CPE MTS Assay percentage of inhibition at the concentration, Huh7), 88%.

In general, EC90 refers to the concentration at which the effect reaches the 90% level. As for `O=C(O)c1cc(/N=N/c2ccc(S(=O)(=O)Nc3ccccn3)cc2)ccc1O` [Sulfasalazine], the 50% effective concentration (EC50) in the series on DENV-2 [9] was greater than 100 µM; in the series on DENV-2 [12], 22.2 µM; in series [1] (Zika virus, U-251, no pretreat, read-out: ZIKV-CPE MTS Assay EC50, μM, U251, No pretreat), 385 µM; in series [1] (Zika virus, U-251, pretreated 18-20 h before infection, read-out: ZIKV-CPE MTS Assay EC50, μM, U251, Pretreat), 318 µM; in the series on WNV replicon it was 9.9 µM; with ZIKV PRVABC59 (Zika virus), 210 µM. Moreover, the EC50 was 8.3 µM in the series on DENV-2 replicon; 181 µM in [2] (Zika virus, Vero cells, no pretreat, read-out: ZIKV-CPE MTS Assay EC50, μM, Vero, No pretreat); 273 µM in [2] (Zika virus, Vero cells, pretreated 18-20 h before infection, read-out: ZIKV-CPE MTS Assay EC50, μM, Vero, Pretreat); 255 µM in series [3] (Zika virus, Huh-7, Huh7 cells, no pretreat, read-out: ZIKV-CPE MTS Assay EC50, μM, Huh7, No pretreat); 341 µM in series [3] (Zika virus, Huh-7, Huh7 cells, pretreated 18-20 h before infection, read-out: ZIKV-CPE MTS Assay EC50, μM, Huh7, Pretreat). Further, the “% inhibition, DENV-2 in Vero cells” value with DENV-2 [9] (Vero, concentration not given) is less than 1%. Besides, in [10], the “doses taken without side effects” value was “up to 4 g/day”. Also, in series [10], the safety in pregnancy result is “safe for a person to take while pregnant”. The “Toxicity in baby hamster kidney (BHK) cells” value in series [11] was greater than 100 µM. Moreover, in [11], the “toxicity in culture (no toxicity up to)” value is greater than 100 µM. Also, the EC90 came to 61.9 µM in the series on DENV-2 [12] and 78.3 µM in the series on WNV replicon. Moreover, the “effect on Norovirus (no effect observed up to)” value in the series with Norovirus was greater than 100 µM. In addition, the figures for the inhibition at 30 µM in the series on WNV replicon (at 30 μM) and in the series with DENV-2 replicon (at 30 μM) were 78.5% and 77.4%, respectively. Also, the “effect on HCV (no effect observed up to)” value with HCV is greater than 100 µM.

Consider `CC1(O)C(O)[C@@H](CO)O[C@H]1n1cc(F)c2c(N)ncnc21` (some centres unmarked) [drawing 83], for which the EC50 in the series with DENV-2 [9] was determined as 8.6 µM; with DENV-2 [12], 2.6 µM.

Consider `CC1(O)C(O)[C@@H](CO)O[C@H]1n1ccc(N)nc1=O` (some centres unmarked), for which the IC50 was greater than 100 µM in series [4]; 16.3 µM in [1] (Zika virus, H251 cells, MOI=0.5, five days); greater than 100 µM in series [5]; 59.1 µM in [6]; 84.3 µM in series [7] (CEM lymphoblastoid cells); 9.2 µM in series [2] (setting [13]). Further, the IC50 stood at 65.4 µM in series [8] (PHA-stimulated human PBM cells) and 9.3 µM in series [3] (Zika virus, Huh7 cells, MOI=0.5, five days).

`CC1(F)C(O)[C@@H](CO)O[C@H]1n1ccc(N)nc1=O` (some centres unmarked): the IC50 in series [5] was greater than 100 µM; in [6], greater than 100 µM; in series [7] (CEM lymphoblastoid cells), greater than 100 µM; in series [2] (setting [13]), no more than 10 µM; in series [8] (PHA-stimulated human PBM cells) it was greater than 100 µM. Also, in series [2] (Zika virus, Vero cells, at 10 μM, read-out: ZIKV CPE MTS Assay percentage of inhibition at the concentration, Vero), the inhibition at 10 µM stood at 65%.

These data come from patent publication US11963972B2, “Antiviral agents and nucleoside analogs for treatment of Zika virus” (priority 2016, dated 2024).
